# Assay results published in patent US9750728B2, “Method and pharmaceutical composition for inhibiting PI3K/AKT/mTOR signaling pathway” (TARGETED THERAPEUTICS, LLC, priority 2012, dated 2017).
# Entries after “also recorded” stand apart in the source; their conditions may differ.
# Legend:
# Assay type in all cases: cell-based
# Panc-1 = assay: Colony formation assay (clonogenic assay); settings: Panc-1, rapamycin alone 1 nM and 10 nM
# Protocol: 1.2. Colony formation assay (clonogenic assay) was used to analyze the effect of ZPP or Y29794 on cancer cell survival. 10^3 Panc-1 cells were plated in 100 mm petri dish in triplicate fed with 10 ml of DMEM containing 10% FBS. The cells were then treated by ZPP for 7 days and cultured for additional three weeks. Cells were then rinsed three times with PBS, fixed with 100% ethanol for 15 min, and stained with 2% crystal violet ethanol solution. The stained colonies were counted. All the results are statistically analyzed by one way ANOVA and two tailed t-test.
# PI3K [1] = assay: PI3K kinase assay in anti-IRS-1 immunoprecipitates; settings: Panc-1, 24 hours; ZPP 200 μM, Y29794 0.5 μM or rapamycin alone
# Protocol: PI3K kinase assay kit (Calbiochem, Bilerica, Mass., USA) was used to measure the IRS-1-associated or p85-associated PI3K kinase activity in cells. The indicated cells were treated with different conditions for 24 hours. The cells were rinsed three times with pre-cooled PBS, lysed in 500 μl of lysis buffer (150 mmol/L Nacl, 1% Triton-x-100, 50 mmol/1 Tris (pH8.0, 1 mmol/L PMSF, 1 μg/L aprotinin, 1 μg/Lleupeptin, 1 μg/L peptain). Cell lysates (500 μg, in triplicate) of were used for anti-IRS-1 or anti-p85 immunoprecipitation. The immunoprecipitates were resuspended in 200 μl assay buffer and mixed with the fluorescence-labeled PI3K substrate BODIPY-TMR-phosphatidylinositol (100 μM) and ATP (37° C.) for 1 hour. The fluorescence intensity was measured with a fluorometer (excitation wavelength of 540 nm, emission wavelength […]). The difference between fluorescence intensity between control immunoprecipitates (no lysates) and lysate immunoprecipitates was used to indicate PI3K kinase activity. IR-1 anti-rabbit antibody and rabbit anti-PI3K p85 antibody were purchased from Millipore Corporation (Billerica, Mass., USA). Panc-1 anti-p85 immunoprecipitates were used for PI3K kinase assay (FIG. 12) and immunoblot analysis (FIG. 12). Rapamycin treatment in control cells increased PI3K kinase activity (P<0.01). […]
# PI3K [2] = assay: PI3K kinase assay in anti-p85 immunoprecipitates; settings: Panc-1, 24 hours; ZPP 200 μM, Y29794 0.5 μM or rapamycin alone, vs vehicle
# Protocol: PI3K kinase assay kit (Calbiochem, Bilerica, Mass., USA) was used to measure the IRS-1-associated or p85-associated PI3K kinase activity in cells. The indicated cells were treated with different conditions for 24 hours. The cells were rinsed three times with pre-cooled PBS, lysed in 500 μl of lysis buffer (150 mmol/L Nacl, 1% Triton-x-100, 50 mmol/1 Tris (pH8.0, 1 mmol/L PMSF, 1 μg/L aprotinin, 1 μg/Lleupeptin, 1 μg/L peptain). Cell lysates (500 μg, in triplicate) of were used for anti-IRS-1 or anti-p85 immunoprecipitation. The immunoprecipitates were resuspended in 200 μl assay buffer and mixed with the fluorescence-labeled PI3K substrate BODIPY-TMR-phosphatidylinositol (100 μM) and ATP (37° C.) for 1 hour. The fluorescence intensity was measured with a fluorometer (excitation wavelength of 540 nm, emission wavelength […]). The difference between fluorescence intensity between control immunoprecipitates (no lysates) and lysate immunoprecipitates was used to indicate PI3K kinase activity. IR-1 anti-rabbit antibody and rabbit anti-PI3K p85 antibody were purchased from Millipore Corporation (Billerica, Mass., USA). Panc-1 anti-p85 immunoprecipitates were used for PI3K kinase assay (FIG. 12) and immunoblot analysis (FIG. 12). Rapamycin treatment in control cells increased PI3K kinase activity (P<0.01).
# [3] = system: S6K (T389) phosphorylation; assay: Immunoblot analysis of S6K phosphorylation; settings: Panc-1 cells incl. PRCP and PREP silenced cells, rapamycin (FIG. 18D)
# Protocol: 2.2 Immunoblot analysis of gene silencing of PRCP or PREP in cancer cells. Mouse anti-PRCP antibody was purchased from Abcam (Cambridge, Mass., USA). Goat anti-PREP antibody was purchased from R&D Systems (Minneapolis, Minn., USA). Mouse anti-R-actin antibody antibodies was from Santa Cruz Biotechnology (Santa Cruz, Calif., USA). Panc-1 pancreatic cancer cells and MCF7 breast cancer cells were cultured to 80% confluence, cells were rinsed three times with pre-cooled PBS, 500 μl of lysis buffer (150 mmol/L Nacl, 1% Triton-x-100, 50 mmol/l TrispH8.0, 1 mmol/L PMSF, 1 ug/L aprotinin, 1 ug/L leupeptin, 1 ug/L peptain) was added to the cells. Cells were scraped and transferred to a centrifuge tube with a pipette. The lysates were spun in a microcentrifuge at maximal speed for 10 minutes at 4° C. to get rid of the insoluble fraction. Protein concentration was determined by Bradford assay. […]
# IRS-1 = assay: Immunoblot analysis of IRS-1 (protein, phosphorylation, half-life, p85 coimmunoprecipitation)
# Protocol: (§1) 2.2 Immunoblot analysis of gene silencing of PRCP or PREP in cancer cells. Mouse anti-PRCP antibody was purchased from Abcam (Cambridge, Mass., USA). Goat anti-PREP antibody was purchased from R&D Systems (Minneapolis, Minn., USA). Mouse anti-R-actin antibody antibodies was from Santa Cruz Biotechnology (Santa Cruz, Calif., USA). Panc-1 pancreatic cancer cells and MCF7 breast cancer cells were cultured to 80% confluence, cells were rinsed three times with pre-cooled PBS, 500 μl of lysis buffer (150 mmol/L Nacl, 1% Triton-x-100, 50 mmol/l TrispH8.0, 1 mmol/L PMSF, 1 ug/L aprotinin, 1 ug/L leupeptin, 1 ug/L peptain) was added to the cells. Cells were scraped and transferred to a centrifuge tube with a pipette. The lysates were spun in a microcentrifuge at maximal speed for 10 minutes at 4° C. to get rid of the insoluble fraction. Protein concentration was determined by Bradford assay. For immunoprecipitation: 2-5 ug protein-specific antibodies were added to 250-500 ug of lysates in a tube and incubated on an ordital shaker 4° C. for 2-4 hours with moderate shaking, then 20 ul Protein G beads (Santa Cruz Biotechnology (Santa Cruz, Calif., USA.) were added and the mixture was incubated with moderate shaking for another hour. After washing the beads in lysis buffer five times, the immunoprecipitates were boiled in 2× Laemmli sample buffer (50 mmoL/L Tris-HCL (pH8.0), 100 mmoL/L DTT, 2% SDS, 0.1% bromophenol blue, 10% glycerol) for five minutes. The proteins were separated by conventional SDS-polyacrylamide gel electrophoresis (SDS-PAGE) electrophoresis and transferred to Amersham Hybond-P PVDF membrane (GE Company, Pittsburgh, Pa., USA). For immunoblot, the membrane was blocked in 2% BSA in TBST buffer (Tris 1.21 g+NaCl 5.84 g+800 ml H2O adjusted to pH 8.0 with HCl) for one hour and then incubated with primary antibodies in TBST at room temperature (22-25° C.) for 2 hours. After washing three times with TBST, the membrane was incubated with HRP-conjugated secondary antibodies for 0.5 hours at room temperature. After washing the membrane five times with TBST (5 minutes/each), the membrane was incubated with ECL chromogenic reagent (GE Company, Pittsburgh, Pa., USA) for 1-5 minutes. The blots were exposed to films in darkroom for 1-5 minute. The films were developed in an automatic X-OMAT Developer (KODAK, Rochester, N.Y., USA). […] PREP gene silencing (PREP KD) or PRCP gene silencing (PRCP KD) or gene silencing both PRCP and PREP (DKD) in MCF7 cells reduces expression of PREP and/or PRCP proteins compared with control cells (control) (FIGS. 6B & 6C).
# 3.2 AKT phosphorylation was examined by immunoblot as described in 3.1. IRS-1 expression was analyzed by immunoblot using anti-IRS-1 antibodies purchased from Santa Cruz Biotechnology (Santa Cruz, Calif., USA). Reduction in PRCP and/or PREP by gene silencing is shown by Western blot and quantitative PCR described in 2.2.
# 3.4 ZPP or Y29794 inhibits IRS-1 tyrosine phosphorylation and p85 PI3K subunit interaction with IRS-1 and PI3K kinase activity. Panc-1 cells were treated with ZPP (200 μM) or Y29794 (0.5 μM) for 24 hours. Lysates were immunoprecipitated with anti-IRS-1 antibodies and the anti-IRS-1 immunoprecipitates were used for PI3K kinase assay and anti-IRS-1 phospho-tyrosine and anti-p85 immunoblot analysis (FIG. 13). ZPP or Y29794 decreased IRS-1-associated PI3K activity (FIG. 13, upper) and tyrosine phosphorylation of IRS-1 and p85 (FIG. 13, lower).
# As described in Example 2.2 and above, the cells with PRCP and PREP gene silencing were used for analysis of PRCP and PREP gene silencing and inhibition of serine phosphorylation and degradation of IRS-1 and its effects on response to rapamycin. […] Compared to control cells, DKD cells show […] serine phosphorylation (S307 and S636/639) of IRS-1 alongside with decreased tyrosine phosphorylation of IRS-1 (FIG. 18B). […]
# [4] = system: AKT phosphorylation (S473); assay: Immunoblot analysis of AKT phosphorylation in cancer cells; settings: 24 hours
# Protocol: as §1
# 3.1 Reduction in AKT phosphorylation is examined by immunoblot using rabbit anti-phospho-AKT […] and rabbit anti-pan AKT antibodies purchased from Cell Signaling Technology (Danvers, Mass., USA) in the cells with gene silencing of PRCP and/or PREP or treated with ZPP or Y29794. Reduction in PRCP and/or PREP is shown by Western blot and quantitative PCR described in 2.2.
# [5] = system: mTOR (S2448) phosphorylation; assay: Immunoblot analysis of mTOR phosphorylation; settings: Panc-1; rapamycin, or Y29794 1 μM (FIG. 19D)
# Protocol: Mouse anti-PRCP antibody was purchased from Abcam (Cambridge, Mass., USA). Goat anti-PREP antibody was purchased from R&D Systems (Minneapolis, Minn., USA). Mouse anti-R-actin antibody antibodies was from Santa Cruz Biotechnology (Santa Cruz, Calif., USA). Panc-1 pancreatic cancer cells and MCF7 breast cancer cells were cultured to 80% confluence, cells were rinsed three times with pre-cooled PBS, 500 μl of lysis buffer (150 mmol/L Nacl, 1% Triton-x-100, 50 mmol/l TrispH8.0, 1 mmol/L PMSF, 1 ug/L aprotinin, 1 ug/L leupeptin, 1 ug/L peptain) was added to the cells. Cells were scraped and transferred to a centrifuge tube with a pipette. The lysates were spun in a microcentrifuge at maximal speed for 10 minutes at 4° C. to get rid of the insoluble fraction. Protein concentration was determined by Bradford assay. For immunoprecipitation: 2-5 ug protein-specific antibodies were added to 250-500 ug of lysates in a tube and incubated on an ordital shaker 4° C. for 2-4 hours with moderate shaking, then 20 ul Protein G beads (Santa Cruz Biotechnology (Santa Cruz, Calif., USA.) were added and the mixture was incubated with moderate shaking for another hour. After washing the beads in lysis buffer five times, the immunoprecipitates were boiled in 2× Laemmli sample buffer (50 mmoL/L Tris-HCL (pH8.0), 100 mmoL/L DTT, 2% SDS, 0.1% bromophenol blue, 10% glycerol) for five minutes. The proteins were separated by conventional SDS-polyacrylamide gel electrophoresis (SDS-PAGE) electrophoresis and transferred to Amersham Hybond-P PVDF membrane (GE Company, Pittsburgh, Pa., USA). For immunoblot, the membrane was blocked in 2% BSA in TBST buffer (Tris 1.21 g+NaCl 5.84 g+800 ml H2O adjusted to pH 8.0 with HCl) for one hour and then incubated with primary antibodies in TBST at room temperature (22-25° C.) for 2 hours. After washing three times with TBST, the membrane was incubated with HRP-conjugated secondary antibodies for 0.5 hours at room temperature. […]
smiles,measurement,setting,value
"CO[C@H]1C[C@@H]2CC[C@@H](C)[C@@](O)(O2)C(=O)C(=O)N2CCCC[C@H]2C(=O)O[C@H]([C@H](C)C[C@@H]2CC[C@@H](O)[C@H](OC)C2)CC(=O)[C@H](C)/C=C(\C)[C@@H](O)[C@@H](OC)C(=O)[C@H](C)C[C@H](C)/C=C/C=C/C=C/1C [rapamycin, (3S,6R,7E,9R,10R,12R,14S,15E,17E,19E,21S,23S,26R,27R,34aS)-9,10,12,13,14,21,22,23,24,25,26,27,32,33,34,34a-hexadecahydro-9,27-dihydroxy-3-[(1R)-2-[(1S,3R,4R)-4-hydroxy-3-methoxycyclohexyl]-1-methylethyl]-10,21-dimethoxy-6,8,12,14,20,26-hexamethyl-23,27-epoxy-3H-pyrido[2,1-c][1,4]oxaazacyclohentriacontine-1,5,11,28,29 (4H,6H,31H)-pentone]",cell survival (colony formation),Panc-1,did not affect
same,IRS-1-associated PI3K activity,PI3K [1],increases; also recorded: significantly elevated
same,PI3K kinase activity (p85-associated),PI3K [2],increases; also recorded: significantly elevated
same,phosphorylation of S6K (T389),[3],completely inhibited
same,IRS-1 protein,"IRS-1; MCF7, rapamycin 10 nM, 24 hours",increased; also recorded: induced an increase
same,tyrosine phosphorylation of IRS-1,"IRS-1; Panc-1, rapamycin 10 nM (FIG. 10A legend)",increased
same,IRS-1 protein,"IRS-1; Panc-1, rapamycin 10 nM, 24 hours",significantly increased; also recorded: induced an increase
same,serine phosphorylation (S307 and S636/639) of IRS-1,"IRS-1; control Panc-1 cells, rapamycin (FIG. 18D)",inhibits; also recorded: inhibiting
same,IRS-1 protein,"IRS-1; control Panc-1 cells, rapamycin, concentration not given",increases; also recorded: induced increase
same,AKT phosphorylation,"[4]; MCF7, rapamycin 10 nM",increased; also recorded: induced an increase
same,AKT phosphorylation,"[4]; Panc-1, rapamycin 10 nM",significantly increased; also recorded: induced an increase
same,mTOR (S2448) phosphorylation,[5],inhibits; also recorded: completely inhibited
